These results are taken from patent US12227500B2, “Substituted pyrrolo[2,3-b]pyridines for suppressing toxic endoplasmic reticulum stress” (THE TRUSTEES OF COLUMBIA UNIVERSITY IN THE CITY OF NEW YORK, priority 2018, dated 2025).

Common to all, as to assay: Radiolabeled ATP kinase assay, panel of 60 kinases (Table S5)
Holding throughout (format): biochemical

The target of test [1] is T1, panel of 60 human kinases (Homo sapiens, UniProt P45983).
T1 construct: purchased Reaction Biology Corp
The settings on record: JNK1; 0.1 μM; 10 μM ATP; read-out: % Enzyme Activity (relative to DSMO controls). Summed up: (§1)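 Compounds at two concentrations, 0.1 μM and 0.5 μM, were screened for inhibition of 60 kinases in cell-free assays read out by radiolabeled ATP.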

The target in test [2] is T2, panel of 60 human kinases (Homo sapiens, UniProt Q15759).
T2 construct: purchased Reaction Biology Corp
The conditions noted are these: P38b/MAPK11; 0.1 μM; 10 μM ATP; read-out: % Enzyme Activity (relative to DSMO controls). Summed up: as §1

In test [3] the target is T3, panel of 60 human kinases (Homo sapiens, UniProt P49760).
T3 construct: purchased Reaction Biology Corp
The conditions noted are these: CLK2; 0.1 μM; 10 μM ATP; read-out: % Enzyme Activity (relative to DSMO controls). In short, it runs like this: as §1

For test [4], the target named is T4, panel of 60 human kinases (Homo sapiens, UniProt P42684).
T4 construct: purchased Reaction Biology Corp
The settings on record: ABL2/ARG; 0.1 μM; 10 μM ATP; read-out: % Enzyme Activity (relative to DSMO controls). In short, it runs like this: as §1

Test [5] concerns the target T5, panel of 60 human kinases (Homo sapiens, UniProt Q16288).
T5 construct: purchased Reaction Biology Corp
The conditions noted are these: TRKC; 0.1 μM; 10 μM ATP; read-out: % Enzyme Activity (relative to DSMO controls). In short, it runs like this: as §1

Test [6] deals with T6, panel of 60 human kinases (Homo sapiens, UniProt Q96GD4).
T6 construct: purchased Reaction Biology Corp
The settings on record: Aurora B; 0.1 μM; 10 μM ATP; read-out: % Enzyme Activity (relative to DSMO controls). Summed up: as §1

In test [7] the target is T7, panel of 60 human kinases (Homo sapiens, UniProt P11362).
T7 construct: purchased Reaction Biology Corp
The conditions noted are these: FGFR1; 0.1 μM; 10 μM ATP; read-out: % Enzyme Activity (relative to DSMO controls). In short, it runs like this: as §1

Test [8] deals with T8, panel of 60 human kinases (Homo sapiens, UniProt P21802).
T8 construct: purchased Reaction Biology Corp
The settings on record: FGFR2; 0.1 μM; 10 μM ATP; read-out: % Enzyme Activity (relative to DSMO controls). In short, it runs like this:
as §1

Test [9] addresses T9, panel of 60 human kinases (Homo sapiens, UniProt Q00535).
T9 construct: purchased Reaction Biology Corp
The conditions noted are these: 0.1 μM, 10 μM ATP, read-out: % Enzyme Activity (relative to DSMO controls). Summed up:
as §1

Test [10] has as its target T10, panel of 60 human kinases (Homo sapiens, UniProt P08581).
T10 construct: purchased Reaction Biology Corp
The settings on record: c-MET; 0.1 μM; 10 μM ATP; read-out: % Enzyme Activity (relative to DSMO controls). Summed up: as §1

Test [11] deals with T11, panel of 60 human kinases (Homo sapiens, UniProt Q07002).
T11 construct: purchased Reaction Biology Corp
The settings on record: CDK18/cyclin Y (PCTK3); 0.1 μM; 10 μM ATP; read-out: % Enzyme Activity (relative to DSMO controls). In short, it runs like this: as §1

Test [12] addresses T12, panel of 60 human kinases (Homo sapiens, UniProt O95819).
T12 construct: purchased Reaction Biology Corp
The conditions noted are these: HGK/MAP4K4; 0.1 μM; 10 μM ATP; read-out: % Enzyme Activity (relative to DSMO controls). In short, it runs like this: as §1

Test [13] deals with T13, panel of 60 human kinases (Homo sapiens, UniProt Q15139).
T13 construct: purchased Reaction Biology Corp
T13 sequence (Q15139 1-912): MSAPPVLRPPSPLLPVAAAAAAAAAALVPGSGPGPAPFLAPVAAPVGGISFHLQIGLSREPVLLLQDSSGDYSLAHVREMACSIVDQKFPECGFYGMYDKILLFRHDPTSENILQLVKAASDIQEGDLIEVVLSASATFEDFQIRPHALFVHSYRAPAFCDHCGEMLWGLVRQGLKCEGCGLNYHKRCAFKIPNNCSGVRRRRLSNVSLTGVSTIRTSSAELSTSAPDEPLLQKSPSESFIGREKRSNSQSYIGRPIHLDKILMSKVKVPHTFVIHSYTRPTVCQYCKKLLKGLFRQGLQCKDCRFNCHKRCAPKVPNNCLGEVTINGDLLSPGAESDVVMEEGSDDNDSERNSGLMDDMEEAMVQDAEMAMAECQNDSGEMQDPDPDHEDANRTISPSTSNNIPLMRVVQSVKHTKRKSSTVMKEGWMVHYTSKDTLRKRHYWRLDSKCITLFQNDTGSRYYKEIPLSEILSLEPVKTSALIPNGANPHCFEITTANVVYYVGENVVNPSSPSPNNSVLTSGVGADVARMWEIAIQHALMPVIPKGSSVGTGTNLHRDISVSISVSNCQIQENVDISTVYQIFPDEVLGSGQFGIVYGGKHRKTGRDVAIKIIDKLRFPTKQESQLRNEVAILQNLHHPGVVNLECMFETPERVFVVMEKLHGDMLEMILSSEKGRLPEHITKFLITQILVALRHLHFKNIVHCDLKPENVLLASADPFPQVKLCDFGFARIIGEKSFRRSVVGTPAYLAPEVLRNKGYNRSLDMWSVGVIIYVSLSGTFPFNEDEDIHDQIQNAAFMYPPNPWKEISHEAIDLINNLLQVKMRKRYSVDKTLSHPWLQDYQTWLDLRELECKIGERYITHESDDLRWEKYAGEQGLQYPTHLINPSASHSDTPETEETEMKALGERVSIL
The conditions noted are these: PKCmu/PRKD1; 0.1 μM; 10 μM ATP; read-out: % Enzyme Activity (relative to DSMO controls). Summed up:
as §1

The target of test [14] is T14, panel of 60 human kinases (Homo sapiens, UniProt P24941).
T14 construct: purchased Reaction Biology Corp
The settings on record: 0.1 μM, 10 μM ATP, read-out: % Enzyme Activity (relative to DSMO controls). In short, it runs like this:
as §1

The target in test [15] is T15, panel of 60 human kinases (Homo sapiens, UniProt Q00526).
T15 construct: purchased Reaction Biology Corp
The conditions noted are these: CDK3/cyclin E; 0.1 μM; 10 μM ATP; read-out: % Enzyme Activity (relative to DSMO controls). In short, it runs like this:
as §1

Where two headings read alike, the source gives them in different places.

T8 sequence (P21802 22-821): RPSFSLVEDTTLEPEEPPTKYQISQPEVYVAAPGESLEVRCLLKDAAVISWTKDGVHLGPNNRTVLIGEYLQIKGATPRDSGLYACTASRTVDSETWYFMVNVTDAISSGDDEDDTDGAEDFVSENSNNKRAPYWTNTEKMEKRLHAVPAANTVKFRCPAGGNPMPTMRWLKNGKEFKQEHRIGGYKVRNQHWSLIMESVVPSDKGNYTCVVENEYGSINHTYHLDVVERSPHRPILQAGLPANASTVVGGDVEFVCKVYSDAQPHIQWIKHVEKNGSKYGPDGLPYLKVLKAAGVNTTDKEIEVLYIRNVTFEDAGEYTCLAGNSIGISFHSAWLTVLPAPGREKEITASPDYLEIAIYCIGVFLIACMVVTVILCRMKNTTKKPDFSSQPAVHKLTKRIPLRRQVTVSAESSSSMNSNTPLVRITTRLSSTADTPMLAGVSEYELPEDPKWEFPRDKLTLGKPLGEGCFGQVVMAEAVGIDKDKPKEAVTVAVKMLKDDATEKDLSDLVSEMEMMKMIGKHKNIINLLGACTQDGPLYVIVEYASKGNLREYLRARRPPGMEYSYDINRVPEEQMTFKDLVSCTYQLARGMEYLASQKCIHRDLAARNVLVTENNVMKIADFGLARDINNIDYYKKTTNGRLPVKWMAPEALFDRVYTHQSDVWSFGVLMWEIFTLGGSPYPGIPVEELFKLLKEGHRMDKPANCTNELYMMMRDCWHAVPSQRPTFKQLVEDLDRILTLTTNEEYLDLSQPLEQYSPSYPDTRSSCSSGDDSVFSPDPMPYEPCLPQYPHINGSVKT
T3 sequence (P49760 whole entry): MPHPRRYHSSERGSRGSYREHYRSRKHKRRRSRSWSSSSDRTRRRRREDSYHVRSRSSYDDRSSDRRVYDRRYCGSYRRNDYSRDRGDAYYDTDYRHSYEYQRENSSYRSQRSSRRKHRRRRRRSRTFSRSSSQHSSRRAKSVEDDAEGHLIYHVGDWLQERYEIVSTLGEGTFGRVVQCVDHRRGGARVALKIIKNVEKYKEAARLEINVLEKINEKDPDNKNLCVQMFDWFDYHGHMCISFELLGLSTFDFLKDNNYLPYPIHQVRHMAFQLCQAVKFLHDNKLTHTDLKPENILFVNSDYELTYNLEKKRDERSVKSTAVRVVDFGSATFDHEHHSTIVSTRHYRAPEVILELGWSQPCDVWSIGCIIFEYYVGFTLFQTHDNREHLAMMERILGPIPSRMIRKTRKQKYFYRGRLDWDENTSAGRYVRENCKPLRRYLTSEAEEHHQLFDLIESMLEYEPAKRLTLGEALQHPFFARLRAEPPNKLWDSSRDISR
T1 sequence (P45983 whole entry): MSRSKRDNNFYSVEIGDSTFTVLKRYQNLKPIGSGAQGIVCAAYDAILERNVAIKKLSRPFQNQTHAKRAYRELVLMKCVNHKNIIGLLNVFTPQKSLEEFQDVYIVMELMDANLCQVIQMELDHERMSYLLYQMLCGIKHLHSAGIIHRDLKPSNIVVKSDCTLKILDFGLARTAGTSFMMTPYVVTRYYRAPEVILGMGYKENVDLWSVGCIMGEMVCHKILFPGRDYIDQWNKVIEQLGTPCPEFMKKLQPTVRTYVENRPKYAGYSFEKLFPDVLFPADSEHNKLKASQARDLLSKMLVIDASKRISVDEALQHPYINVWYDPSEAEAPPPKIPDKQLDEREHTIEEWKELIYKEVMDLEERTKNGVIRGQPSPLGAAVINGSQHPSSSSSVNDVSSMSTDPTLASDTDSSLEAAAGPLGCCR
T10 sequence (P08581 25-1390): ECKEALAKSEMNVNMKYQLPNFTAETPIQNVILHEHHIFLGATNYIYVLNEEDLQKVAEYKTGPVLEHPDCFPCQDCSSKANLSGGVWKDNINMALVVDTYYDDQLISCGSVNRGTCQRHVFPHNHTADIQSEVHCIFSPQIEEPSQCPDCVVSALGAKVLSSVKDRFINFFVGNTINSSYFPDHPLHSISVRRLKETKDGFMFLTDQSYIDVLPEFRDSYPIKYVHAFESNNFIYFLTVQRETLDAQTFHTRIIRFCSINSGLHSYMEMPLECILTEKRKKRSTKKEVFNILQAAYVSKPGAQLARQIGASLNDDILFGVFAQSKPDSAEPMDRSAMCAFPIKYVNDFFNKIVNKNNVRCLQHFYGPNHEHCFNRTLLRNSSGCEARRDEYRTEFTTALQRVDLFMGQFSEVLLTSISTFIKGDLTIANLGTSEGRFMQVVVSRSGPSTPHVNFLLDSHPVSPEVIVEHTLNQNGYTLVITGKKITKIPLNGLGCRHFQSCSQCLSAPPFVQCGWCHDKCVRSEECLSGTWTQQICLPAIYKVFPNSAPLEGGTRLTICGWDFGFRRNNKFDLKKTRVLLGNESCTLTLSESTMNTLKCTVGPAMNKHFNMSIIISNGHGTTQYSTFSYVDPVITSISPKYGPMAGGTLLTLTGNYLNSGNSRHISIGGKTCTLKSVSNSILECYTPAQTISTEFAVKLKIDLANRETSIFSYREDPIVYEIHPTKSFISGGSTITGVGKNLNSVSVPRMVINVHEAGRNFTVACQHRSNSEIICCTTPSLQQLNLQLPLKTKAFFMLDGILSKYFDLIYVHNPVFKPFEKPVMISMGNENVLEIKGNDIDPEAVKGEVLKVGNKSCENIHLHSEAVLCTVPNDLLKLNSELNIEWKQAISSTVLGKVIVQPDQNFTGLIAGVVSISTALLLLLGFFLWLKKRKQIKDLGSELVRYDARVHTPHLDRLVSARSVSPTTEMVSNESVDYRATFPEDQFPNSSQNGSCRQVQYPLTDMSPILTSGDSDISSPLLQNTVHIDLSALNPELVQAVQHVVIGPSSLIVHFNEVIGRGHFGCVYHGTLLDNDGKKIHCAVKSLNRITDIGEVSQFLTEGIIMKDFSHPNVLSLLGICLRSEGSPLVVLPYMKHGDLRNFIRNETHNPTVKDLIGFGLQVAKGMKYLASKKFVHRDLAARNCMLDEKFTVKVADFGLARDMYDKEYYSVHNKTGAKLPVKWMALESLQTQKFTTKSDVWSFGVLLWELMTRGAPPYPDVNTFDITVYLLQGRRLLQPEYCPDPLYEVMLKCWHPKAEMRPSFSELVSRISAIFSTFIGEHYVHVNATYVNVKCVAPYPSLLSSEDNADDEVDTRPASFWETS
T15 sequence (Q00526 whole entry): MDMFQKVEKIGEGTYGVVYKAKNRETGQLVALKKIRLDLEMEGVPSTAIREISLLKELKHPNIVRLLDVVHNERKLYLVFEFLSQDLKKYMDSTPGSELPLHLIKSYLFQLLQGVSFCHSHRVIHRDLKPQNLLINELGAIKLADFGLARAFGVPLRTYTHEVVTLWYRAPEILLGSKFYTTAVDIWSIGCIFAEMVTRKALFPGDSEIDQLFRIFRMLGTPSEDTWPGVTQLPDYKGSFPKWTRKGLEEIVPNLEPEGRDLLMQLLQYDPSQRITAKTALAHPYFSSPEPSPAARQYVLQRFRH
T12 sequence (O95819 whole entry): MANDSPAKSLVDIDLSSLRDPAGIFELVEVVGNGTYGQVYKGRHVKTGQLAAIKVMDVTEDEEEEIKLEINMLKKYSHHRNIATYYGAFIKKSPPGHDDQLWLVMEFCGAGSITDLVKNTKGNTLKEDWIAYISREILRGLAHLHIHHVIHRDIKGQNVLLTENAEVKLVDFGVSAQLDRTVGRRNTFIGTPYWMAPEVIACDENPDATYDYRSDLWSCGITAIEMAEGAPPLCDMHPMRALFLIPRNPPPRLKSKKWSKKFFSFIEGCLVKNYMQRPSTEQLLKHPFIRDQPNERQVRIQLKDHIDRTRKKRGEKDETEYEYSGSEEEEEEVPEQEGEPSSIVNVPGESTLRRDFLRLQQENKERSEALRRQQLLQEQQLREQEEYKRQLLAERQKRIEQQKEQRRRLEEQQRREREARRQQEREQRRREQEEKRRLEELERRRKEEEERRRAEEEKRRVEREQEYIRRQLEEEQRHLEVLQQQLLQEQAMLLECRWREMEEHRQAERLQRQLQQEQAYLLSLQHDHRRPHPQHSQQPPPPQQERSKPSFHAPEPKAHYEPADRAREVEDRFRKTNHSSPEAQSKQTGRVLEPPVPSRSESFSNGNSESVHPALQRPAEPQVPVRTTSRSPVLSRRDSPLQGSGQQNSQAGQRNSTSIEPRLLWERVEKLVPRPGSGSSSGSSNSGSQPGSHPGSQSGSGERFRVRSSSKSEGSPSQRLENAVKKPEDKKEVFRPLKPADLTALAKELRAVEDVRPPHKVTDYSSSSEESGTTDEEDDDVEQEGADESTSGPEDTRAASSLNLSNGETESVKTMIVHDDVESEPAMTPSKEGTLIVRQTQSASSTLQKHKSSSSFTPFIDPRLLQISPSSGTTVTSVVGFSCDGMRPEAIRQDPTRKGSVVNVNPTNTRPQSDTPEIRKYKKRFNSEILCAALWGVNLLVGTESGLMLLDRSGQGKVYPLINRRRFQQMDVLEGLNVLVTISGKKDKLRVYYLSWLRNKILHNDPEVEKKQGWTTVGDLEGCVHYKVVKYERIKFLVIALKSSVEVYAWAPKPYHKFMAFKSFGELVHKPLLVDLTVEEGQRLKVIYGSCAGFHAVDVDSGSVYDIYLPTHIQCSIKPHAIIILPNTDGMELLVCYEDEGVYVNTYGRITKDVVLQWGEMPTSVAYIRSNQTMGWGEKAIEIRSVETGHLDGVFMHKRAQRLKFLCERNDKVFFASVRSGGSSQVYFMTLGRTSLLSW
T6 sequence (Q96GD4 whole entry): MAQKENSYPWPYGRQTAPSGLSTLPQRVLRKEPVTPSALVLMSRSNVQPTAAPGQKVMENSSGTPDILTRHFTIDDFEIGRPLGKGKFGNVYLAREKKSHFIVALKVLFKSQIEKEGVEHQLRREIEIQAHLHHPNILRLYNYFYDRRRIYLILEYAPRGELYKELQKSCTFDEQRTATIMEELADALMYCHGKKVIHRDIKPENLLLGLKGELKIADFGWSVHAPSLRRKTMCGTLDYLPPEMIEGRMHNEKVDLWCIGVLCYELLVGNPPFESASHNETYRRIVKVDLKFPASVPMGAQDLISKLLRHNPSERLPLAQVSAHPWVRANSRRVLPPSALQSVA

On to `CN1CCN(Cc2ccc(-c3cnc4[nH]cc(-c5ccncc5)c4c3)cc2)CC1` [Compound 7n, 5-(4-((4-Methylpiperazin-1-yl)methyl)phenyl)-3-(pyridin-4-yl)-1H-pyrrolo[2,3-b]pyridine], for which the remaining activity at 0.1 µM in [1] was determined as 85.5%; in [2], 101%; in test [3] it was 23.6%; in test [4], 91.5%; in test [5], 25.4%; in [6], 86.9%. Besides, the remaining activity at 0.1 µM was 100% in test [7]; 94% in test [8]; 69.2% in test [9] (CDK5/p25); 57.5% in [9] (CDK5/p35); 102% in test [10]; 24% in [11]. Also, the remaining activity at 0.1 µM in test [12] is 35%; in test [13], 31.5%; in [14] (CDK2/cyclin A1) it was 60.2%; in test [14] (CDK2/cyclin A) it was 66%; in test [14] (CDK2/cyclin E), 54.3%; in test [14] (CDK2/cyclin O) it was 43.7%. Also, the remaining activity at 0.1 µM in test [15] was found to be 72.3%.

With `CN1CCN(Cc2ccc(-c3cnc4[nH]cc(-c5ccoc5)c4c3)cc2)CC1` [Compound 7w, 3-(Furan-3-yl)-5-(4-((4-methylpiperazin-1-yl)methyl)phenyl)-1H-pyrrolo[2,3-b]pyridine], the remaining activity at 0.1 µM in test [1] stood at 76.8%; in [2] it was 99.3%; in test [3], 59.2%; in test [4] it was 77.6%; in test [5] it was 25.8%; in test [6] it was 89.9%. The remaining activity at 0.1 µM in test [7] is 93.1%; in [8], 77.8%; in test [9] (CDK5/p25) it was 89.4%; in [9] (CDK5/p35) it was 82.2%; in test [10], 96.6%; in test [11], 94.5%. The remaining activity at 0.1 µM was 2.85% in test [12]; 20.4% in test [13]; 88.6% in [14] (CDK2/cyclin A1); 91.1% in test [14] (CDK2/cyclin A); 92.4% in test [14] (CDK2/cyclin E); 80.2% in test [14] (CDK2/cyclin O). The remaining activity at 0.1 µM in test [15] is 93.7%.

For `COc1ccccc1-c1c[nH]c2ncc(-c3ccc(CN4CCN(C)CC4)cc3)cc12` [Compound 7at, 3-(2-Methoxyphenyl)-5-(4-((4-methylpiperazin-1-yl)methyl)phenyl)-1H-pyrrolo[2,3-b]pyridine], the remaining activity at 0.1 µM in [1] worked out at 102%; in test [2] it was 97.7%; in [3], 90.9%; in [4], 21.8%; in test [5] it was 34.8%; in [6], 87.8%. Further, the remaining activity at 0.1 µM was 96.4% in test [7]; 83.4% in test [8]; 43.1% in test [9] (CDK5/p25); 31.9% in test [9] (CDK5/p35); 86.8% in test [10]; 97.1% in [11]. Also, the remaining activity at 0.1 µM in test [12] was 9.52%; in test [13], 38.7%; in test [14] (CDK2/cyclin A1) it was 58.8%; in test [14] (CDK2/cyclin A), 56.1%; in test [14] (CDK2/cyclin E) it was 80.6%; in test [14] (CDK2/cyclin O), 29.6%. Further, the remaining activity at 0.1 µM in [15] is 72.7%.

As for `CN1CCN(Cc2ccc(-c3cnc4[nH]cc(-c5ccccc5Cl)c4c3)cc2)CC1` [Compound 7as, 3-(2-Chlorophenyl)-5-(4-((4-methylpiperazin-1-yl)methyl)phenyl)-1H-pyrrolo[2,3-b]pyridine], the remaining activity at 0.1 µM in test [1] amounted to 74.6%; in test [2], 99.5%; in [3] it was 22.5%; in test [4], 0.99%; in test [5], 6.32%; in [6], 82.5%. Moreover, the remaining activity at 0.1 µM in test [7] amounted to 77.9%; in [8], 41.1%; in test [9] (CDK5/p25) it was 48.6%; in test [9] (CDK5/p35) it was 36%; in [10], 84.1%; in [11], 95.5%. The remaining activity at 0.1 µM in [12] was -0.5%; in test [13], 9.63%; in test [14] (CDK2/cyclin A1), 65%; in test [14] (CDK2/cyclin A), 69.5%; in test [14] (CDK2/cyclin E) it was 88.5%; in test [14] (CDK2/cyclin O), 51.2%. Further, the remaining activity at 0.1 µM in test [15] was found to be 85.5%.
